# Laboratory results published in patent publication US9382226B2, “Aldosterone synthase inhibitors” (Merck Sharp & Dohme Corp., priority 2010, dated 2016).
# Experiments:
# human CYP11B1 = target: T1, human CYP11B1 (Homo sapiens, UniProt P15538); assay: V79-Human-CYP11B1 cell assay (cortisol formation, HTRF); assay type: cell-based; details: V79 cells stably expressing human CYP11B1; substrate 250 nM 11-deoxycortisol; 3 hours
# T1 construct: expressed in transfected cells; host or cells: V79 cells (clone V79-hCYP11B1-8C7)
# T1 sequence (P15538 25-503): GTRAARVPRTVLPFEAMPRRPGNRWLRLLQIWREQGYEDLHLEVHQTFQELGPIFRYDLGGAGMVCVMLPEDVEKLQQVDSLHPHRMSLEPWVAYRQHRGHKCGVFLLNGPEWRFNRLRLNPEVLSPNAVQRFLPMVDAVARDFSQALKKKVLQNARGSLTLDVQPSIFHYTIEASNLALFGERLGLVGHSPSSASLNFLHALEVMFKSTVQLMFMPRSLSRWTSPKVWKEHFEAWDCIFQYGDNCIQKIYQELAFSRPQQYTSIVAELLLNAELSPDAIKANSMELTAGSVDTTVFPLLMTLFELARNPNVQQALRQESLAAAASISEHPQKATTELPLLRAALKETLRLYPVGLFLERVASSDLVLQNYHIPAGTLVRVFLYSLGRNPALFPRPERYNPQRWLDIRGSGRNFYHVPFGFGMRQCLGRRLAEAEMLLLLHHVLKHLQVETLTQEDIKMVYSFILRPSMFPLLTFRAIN
# Method: Methods for V79-Human-CYP11B2 and V79-Human-CYP11B1 Assays: V79 cell lines stably expressing the either the human CYP11B2 or the human CYP11B1 enzyme were generated using a standard transfection protocol. V79 cells were transfected with plasmids pTriEx3-Hygro-hCyp11B2 or pTriEx3-Hygro-hCyp11B1 using Lipofectamine2000 reagent. V79 cells that stably express the human CYP11B2 or human CYP11B1 enzyme were selected for and maintained in DMEM supplemented with 10% FBS and 400 μg/mL hygromycin for ˜2 weeks. Single cell clones were generated by […] in DMEM supplemented with 10% FBS and 400 μg/mL hygromycin until single colonies were obtained. […] For testing of inhibitors, cells were harvested at 80% confluency with 0.5% Trypsan-EDTA, washed once in PBS, and reconstituted in DMEM 0.1% BSA media at a cell concentration of 400,000 cells/mL. 25 μl of cells were added to a 384 well tissue culture treated plate and mixed with 0.25 μl of inhibitor or DMSO (1% final DMSO concentration) for 1 hour at 37° C., 5% CO2. […] The reaction was carried out for 3 hours at 37° C., 5% CO2 and was stopped by harvesting the supernatants. The amount of product in the supernatant (aldosterone for CYP11B2 assay and cortisol for the CYP11B1 assay) was measured using HTRF-based assay kit (Aldosterone HTRF-CisBio#64ALDPEB, Cortisol HTRF-CisBio #63IDC002-CORT). IC50's for the inhibitor were determined by plotting the amount of product formed against the concentration of inhibitor using sigmoidal dose-response curve (variable slope) fit in GraphPad.
# human CYP11B2 = target: T2, human CYP11B2 (Homo sapiens, UniProt P19099); assay: V79-Human-CYP11B2 cell assay (aldosterone formation, HTRF); assay type: cell-based; details: V79 cells stably expressing human CYP11B2; substrate 125 nM 11-deoxycorticosterone; 3 hours
# T2 construct: expressed in transfected cells; host or cells: V79 cells (clone V79-hCYP11B2-CLE9)
# T2 sequence (P19099 25-503): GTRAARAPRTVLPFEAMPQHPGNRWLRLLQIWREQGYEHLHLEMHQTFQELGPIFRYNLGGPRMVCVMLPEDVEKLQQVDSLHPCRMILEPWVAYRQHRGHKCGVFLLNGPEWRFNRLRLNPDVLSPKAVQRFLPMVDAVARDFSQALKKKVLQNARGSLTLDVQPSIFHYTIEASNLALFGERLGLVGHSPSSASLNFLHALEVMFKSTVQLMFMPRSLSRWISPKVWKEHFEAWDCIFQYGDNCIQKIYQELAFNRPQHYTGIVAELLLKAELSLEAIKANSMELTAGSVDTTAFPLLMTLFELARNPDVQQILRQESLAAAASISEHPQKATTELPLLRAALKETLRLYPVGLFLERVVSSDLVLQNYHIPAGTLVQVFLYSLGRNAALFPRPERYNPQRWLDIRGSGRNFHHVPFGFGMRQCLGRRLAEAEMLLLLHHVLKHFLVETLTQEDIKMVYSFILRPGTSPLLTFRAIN
# Method: Methods for V79-Human-CYP11B2 and V79-Human-CYP11B1 Assays: V79 cell lines stably expressing the either the human CYP11B2 or the human CYP11B1 enzyme were generated using a standard transfection protocol. V79 cells were transfected with plasmids pTriEx3-Hygro-hCyp11B2 or pTriEx3-Hygro-hCyp11B1 using Lipofectamine2000 reagent. V79 cells that stably express the human CYP11B2 or human CYP11B1 enzyme were selected for and maintained in DMEM supplemented with 10% FBS and 400 μg/mL hygromycin for ˜2 weeks. Single cell clones were generated by […] in DMEM supplemented with 10% FBS and 400 μg/mL hygromycin until single colonies were obtained. Clones V79-hCYP11B2-CLE9 and V79-hCYP11B1-8C7, were determined to produce the most aldosterone and cortisol, respectively, and were selected for inhibitor screening. For testing of inhibitors, cells were harvested at 80% confluency with 0.5% Trypsan-EDTA, washed once in PBS, and reconstituted in DMEM 0.1% BSA media at a cell concentration of 400,000 cells/mL. 25 μl of cells were added to a 384 well tissue culture treated plate and mixed with 0.25 μl of inhibitor or DMSO (1% final DMSO concentration) for 1 hour at 37° C., 5% CO2. After pre-incubation with inhibitor, the reaction was initiated by adding 5 μl of substrate (final concentration of 125 nM 11-deoxycorticosterone for the CYP11B2 assay or 250 nM 11-deoxycortisol for the CYP11B1 assay). The reaction was carried out for 3 hours at 37° C., 5% CO2 and was stopped by harvesting the supernatants. The amount of product in the supernatant (aldosterone for CYP11B2 assay and cortisol for the CYP11B1 assay) was measured using HTRF-based assay kit (Aldosterone HTRF-CisBio#64ALDPEB, Cortisol HTRF-CisBio #63IDC002-CORT). IC50's for the inhibitor were determined by plotting the amount of product formed against the concentration of inhibitor using sigmoidal dose-response curve (variable slope) fit in GraphPad.
IC50 (human CYP11B1) [nM],IC50 (human CYP11B2) [nM],Structure (SMILES)
4080,26,"Cn1c(-c2cccnc2)nc2cc(F)ccc21 [Example 4, 5-fluoro-1-methyl-2-(pyridin-3-yl)-1H-benzimidazole]"
59.2,0.1,"Fc1ccc2nc(-c3cncc4ccccc34)n(C3CC3)c2c1 [Example 16, 4-(1-cyclopropyl-6-fluoro-1H-benzimidazol-2-yl)isoquinoline]"
3980,28,"Fc1ccc2c(c1)nc(-c1cccnc1)n2C1CC1 [Example 17, 1-cyclopropyl-5-fluoro-2-(pyridin-3-yl)-1H-benzimidazole]"
304,3.8,"CCn1c(-c2cncc3ccccc23)nc2cc(F)ccc21 [Example 26, 4-(1-ethyl-5-fluoro-1H-benzimidazol-2-yl)isoquinoline]"
9.6,0.1,"Fc1cc2nc(-c3cncc4ccccc34)n(C3CC3)c2cc1F [Example 32, 4-(1-cyclopropyl-5,6-difluoro-1H-benzimidazol-2-yl)isoquinoline]"
42,0.3,"CC(C)(O)c1cncc(-c2nc3cc(F)c(F)cc3n2C2CC2)c1 [Example 38, 2-[5-(1-Cyclopropyl-5,6-difluoro-1H-benzimidazol-2-yl)pyridin-3-yl]propan-2-ol]"
3.4,0.3,"COC(C)(C)c1cncc(-c2nc3cc(F)c(F)cc3n2C2CC2)c1 [Example 39, 1-cyclopropyl-5,6-difluoro-2-[5-(2-methoxypropan-2-yl)pyridin-3-yl]-1H-benzimidazole]"
4.7,0.2,"COC(C)(C)c1cncc(-c2nc3ccc(F)cc3n2C2CC2)c1 [Example 51, 1-cyclopropyl-6-fluoro-2-[5-(2-methoxypropan-2-yl)pyridin-3-yl]-1H-benzimidazole]"
374,1.23,"N#Cc1ccc2nc(-c3cccnc3)n(C3CC3)c2c1 [Example 75, 1-cyclopropyl-2-(pyridin-3-yl)-1H-benzo[d]imidazole-6-carbonitrile]"
1750,0.422,"COc1cncc(-c2nc3ccc(C#N)cc3n2C2CC2)c1 [Example 76, 1-cyclopropyl-2-(5-methoxypyridin-3-yl)-1H-benzimidazole-6-carbonitrile]"
98,0.316,"Cn1c(-c2cccnc2)nc2ccc(C#N)cc21 [Example 99, 1-methyl-2-(pyridin-3-yl)-1H-benzimidazole-6-carbonitrile]"
161,0.81,"Fc1cncc(-c2nc3cc(F)c(Cl)cc3n2C2CC2)c1 [Example 129, 6-chloro-1-cyclopropyl-5-fluoro-2-(5-fluoropyridin-3-yl)-1H-benzimidazole]"
122,0.126,"Fc1cc2nc(-c3cncc4ccccc34)n(C3CC3)c2cc1Cl [Example 131, 4-(6-chloro-1-cyclopropyl-5-fluoro-1H-benzimidazol-2-yl)isoquinoline]"
10000,0.597,"Fc1cc2nc(-c3cccnc3)n(C3CC3)c2cc1Cl [Example 132, 6-chloro-1-cyclopropyl-5-fluoro-2-(pyridin-3-yl)-1H-benzimidazole]"
602,0.226,"Cc1cncc(-c2nc3cc(F)c(Cl)cc3n2C2CC2)c1 [Example 135, 6-chloro-1-cyclopropyl-5-fluoro-2-(5-methylpyridin-3-yl)-1H-benzimidazole]"
946,3.55,"Fc1cncc(-c2nc3ccc(Br)cc3n2C2CC2)c1 [Example 172, 6-bromo-1-cyclopropyl-2-(5-fluoropyridin-3-yl)-1H-benzimidazole]"
149,0.585,"Cc1cncc(-c2nc3cc(F)c(F)cc3n2C)c1 [Example 212, 5,6-difluoro-1-methyl-2-(5-methylpyridin-3-yl)-1H-benzimidazole]"
790,1.12,"COc1c(C)cncc1-c1nc2cc(F)c(F)cc2n1C1CC1 [Example 226, 1-cyclopropyl-5,6-difluoro-2-(4-methoxy-5-methylpyridin-3-yl)-1H-benzimidazole]"
162,0.2,"COc1cncc(-c2nc3ccc(Cl)cc3n2C)c1 [Example 232, 6-chloro-2-(5-methoxypyridin-3-yl)-1-methyl-1H-benzimidazole]"
270,1.15,"Cn1c(-c2cccnc2)nc2ccc(Cl)cc21 [Example 233, 6-chloro-1-methyl-2-(pyridin-3-yl)-1H-benzimidazole]"
425,1.59,"Clc1ccc2nc(-c3cccnc3)n(C3CC3)c2c1 [Example 250, 6-chloro-1-cyclopropyl-2-(pyridin-3-yl)-1H-benzimidazole]"
490,0.346,"Cn1c(-c2cncc3ccccc23)nc2cc(F)cc(F)c21 [Example 256, 4-(5,7-difluoro-1-methyl-1H-benzimidazol-2-yl)isoquinoline]"
206,0.151,Cn1c(-c2cncc3ccccc23)nc2ccc(F)c(F)c21 [Example 267]
117,0.234,"Cc1cncc(-c2nc3ccc(F)c(F)c3n2C)c1C [Example 268, 2-(4,5-dimethylpyridin-3-yl)-6,7-difluoro-1-methyl-1H-benzimidazole]"
206,0.282,"Fc1ccc2nc(-c3cncc4ccccc34)n(C3CC3)c2c1F [Example 279, 4-(1-cyclopropyl-6,7-difluoro-1H-benzimidazol-2-yl)isoquinoline]"
295,0.417,"Cc1cncc(-c2nc3ccc(F)c(F)c3n2C2CC2)c1C [Example 282, 1-cyclopropyl-2-(4,5-dimethylpyridin-3-yl)-6,7-difluoro-1H-benzimidazole]"
300,1.35,"Cc1ccncc1-c1nc2ccc(F)c(F)c2n1C1CC1 [Example 284, 1-cyclopropyl-6,7-difluoro-2-(4-methylpyridin-3-yl)-1H-benzimidazole]"
